Reference: patent US20190208782A1, “PROCESSING COMPOSITION FOR C[…] WEEDS” (Arch Chemicals, Inc., priority 2018, published 2019)

Experiments:
Format in all cases: in vivo
[1] = test system: water hyacinth; assay: Fluroxypyr ester and four potassium salt formulations as foliar application on water hyacinth (Example 5)
Description: Materials and Methods: Water hyacinth was obtained from field locations in Mississippi and cultured in a 300 gallon tank outdoors. Water in the culture tank was amended with 30 mg/L Miracle-Gro fertilizer (14-8-16) every week to maintain plant growth. Once a sufficient density of water hyacinth had been achieved in the culture tank, rosettes of similar size were harvested and divided so that six to seven rosettes were placed into each of 33, 100 gallon treatment tanks. The treatment tanks were filled to a depth of 45 cm with water. Water was amended with 30 mg/L of Miracle-Gro fertilizer to maintain plant growth. Plants were allowed to grow until the water surface in each tank had been covered by water hyacinth.
After the growth period plants were treated as a foliar spray based on the formulations and rates in Table 7. The treatments contained the fluroxypyr herbicide in an amount of 15% by weight. Each surfactant was added in an amount of 10% by weight. The remainder of the formulation was distilled water. Treatments were applied using water as a carrier in a fine foliar spray at a total spray volume of 100 gal/acre using a CO2 pressurized backpack sprayer and single nozzle boom. AB Brand Adjuvant was included in the herbicide solution at a rate of 0.25% v:v.
After treatment, each tank was rated for percent control from 0 to 100% control every week for four weeks. At four weeks after treatment (WAT) a 0.1 m^2 PVC quadrat was used to harvest 1 biomass sample from each tank if living biomass was present. Biomass samples were placed into labeled paper bags, dried in a forced air oven at 50 C for five days, and then weighed to determine dry weight biomass (g/DW/m^2). Differences between treatments were analyzed using ANOVA and means separated using a Fisher's Protected LSD test. All analyses were conducted a p≤0.05 significance level.

[2] = test system: Eurasian watermilfoil; assay: Fluroxypyr potassium salt vs ester formulation on Eurasian watermilfoil in small scale aquaria (Example 3); conditions: 24 h exposure, 4 WAT
Description: Materials and Methods: Eurasian watermilfoil was obtained from cultures. Two apical tips approximately 10 cm long were planted into each of 96, plastic containers (473 mL). The containers were filled with potting soil and amended with 2 g/L/soil Osmocote® fertilizer 19-6-12. A layer of sand was placed on top of the sediment in each container to prevent sediment re-suspension in the aquaria. Four containers of potted Eurasian watermilfoil were placed into each of 24 aquaria. Each aquaria was filled to a volume of 45 L and plants allowed to grow approximately 2-3 weeks prior to herbicide treatments or until plants were at or near the water surface. Pre-treatment biomass was harvested from extra aquaria set up with pots for this purpose. Biomass was harvested by cutting aboveground biomass of plants at the soil surface in the three pretreatment aquaria. Harvested plant material was placed into individually labeled paper bags, dried in a force air oven at 50 C for at least 48 h, and then weighed to assess biomass. […]
Each week, aquaria were rated for percent control on a 0-100% scale (0%=no control; 100% complete plant mortality). […] Differences between treatments were analyzed using ANOVA and means separated using a Fisher's Protected LSD test at a p≤0.05 significance level.

[3] = test system: water hyacinth; assay: Foliar application of fluroxypyr herbicide on water hyacinth (Example 2); conditions: for Water hyacinth biomass reduction: 6 WAT
Description: Materials and Methods: Water hyacinth was obtained from field locations and cultured outdoors in a 300 gallon tank. Water in the culture tank was amended with 30 mg/L Miracle-Gro® fertilizer (14-8-16) every week to maintain plant growth. Aquashade® was added to the tank in sufficient concentration to darken the water in order to reduce algae growth
Once a sufficient density of water hyacinth had been achieved in the culture tank (plants had covered the water surface), 54-63 rosettes of similar size were harvested and divided so that six to seven rosettes (depending upon size) were placed into each of 9, 100 gallon treatment tanks. The treatment tanks were filled to a depth of 45 cm with water. Water in each treatment tank was amended and maintained in a similar fashion as the culture tank. Plants were allowed to grow approximately 2 weeks or until the water surface in each tank had been covered. Pre-treatment biomass (1 per tank) was harvested using a 0.1 m^2 PVC quadrat. The quadrat was pushed down over the plant mat in each tank and all biomass was harvested within the PVC frame. Biomass from each tank was rinsed, placed in a paper bag, and dried at 50 C to assess biomass.
After the growth period and pre-treatment harvest, plants were treated as a foliar spray using the product and rates outlined in Table 3. Treatments were applied using water as a carrier in a fine foliar spray and a total spray volume of 100 gal/acre. AB Brand Adjuvant (commercially available from Lonza, Inc.) was included in the herbicide solution at a rate of 0.25% v:v.
After treatment, each tank was rated on a scale from 0 (no control) to 100% (complete mortality) control every week for six weeks. At six weeks after treatment the 0.1 m^2 PVC quadrat was used to harvest 1 biomass sample from each tank if living biomass was present. Samples were rinsed, placed into labeled paper bags, and dried at 50 C to determine dry weight biomass. Differences between treatments were analyzed using ANOVA at a p≤0.05 significance level, and if a difference in treatments was detected means were then separated using a Fisher's Protected LSD test.

CCCCCCC(C)OC(=O)COc1nc(F)c(Cl)c(N)c1Cl (centres unmarked) [Fluroxypyr ester, [(4-amino-3,5-dichloro-6-fluoro-2-pyridinyl)oxy]acetic acid, 1-methylheptyl ester]
efficacy on water hyacinth biomass relative to the other fluroxypyr treatments ([1]; 4 WAT, Ester 8 oz/acre, potassium salt formulations 10 oz/acre, FIG. 6): not as efficacious as the other fluroxypyr treatments
Mean percent control ratings of water hyacinth ([1]; 8 oz/acre foliar, 1 WAT): 20%
Mean percent control ratings of water hyacinth ([1]; 8 oz/acre foliar, 2 WAT): 25%
Mean percent control ratings of water hyacinth ([1]; 8 oz/acre foliar, 3 WAT): 55%
Mean percent control ratings of water hyacinth ([1]; 8 oz/acre foliar, 4 WAT): 75%
Mean percent control ratings of water hyacinth ([1]; 16 oz/acre foliar, 1 WAT): 20%
Mean percent control ratings of water hyacinth ([1]; 16 oz/acre foliar, 2 WAT): 45%
Mean percent control ratings of water hyacinth ([1]; 16 oz/acre foliar, 3 WAT): 85%
Mean percent control ratings of water hyacinth ([1]; 16 oz/acre foliar, 4 WAT): 95%
Eurasian watermilfoil biomass reduction ([2]; 200 ug/L): 100%
Eurasian watermilfoil biomass reduction ([2]; 400 ug/L): 100%
Mean percent control ratings of water hyacinth ([3]; 8 oz/acre foliar spray, 1 week after treatment): 15%
Mean percent control ratings of water hyacinth ([3]; 8 oz/acre foliar spray, 2 weeks after treatment): 40%
Mean percent control ratings of water hyacinth ([3]; 8 oz/acre foliar spray, 3 weeks after treatment): 45%
Mean percent control ratings of water hyacinth ([3]; 8 oz/acre foliar spray, 4 weeks after treatment): 65%
Mean percent control ratings of water hyacinth ([3]; 8 oz/acre foliar spray, 5 weeks after treatment): 85%
Water hyacinth biomass reduction ([3]; 8 oz/acre foliar spray): 90%
Mean percent control ratings of water hyacinth ([3]; 8 oz/acre foliar spray, 6 weeks after treatment): 85%
time of plant death ([3]; 16 oz/acre foliar spray): approximately 4 WAT
Mean percent control ratings of water hyacinth ([3]; 16 oz/acre foliar spray, 1 week after treatment): 35%
Mean percent control ratings of water hyacinth ([3]; 16 oz/acre foliar spray, 2 weeks after treatment): 45%
Mean percent control ratings of water hyacinth ([3]; 16 oz/acre foliar spray, 3 weeks after treatment): 65%
Mean percent control ratings of water hyacinth ([3]; 16 oz/acre foliar spray, 4 weeks after treatment): 85%
Mean percent control ratings of water hyacinth ([3]; 16 oz/acre foliar spray, 5 weeks after treatment): 95%
Water hyacinth biomass reduction ([3]; 16 oz/acre foliar spray): 99%
Mean percent control ratings of water hyacinth ([3]; 16 oz/acre foliar spray, 6 weeks after treatment): 95%
